Measured values published in patent US12522607B2, “Substituted pyrazolo[3,4-d]pyrimidines as wee-1 inhibitors” (WIGEN BIOMEDICINE TECHNOLOGY (SHANGHAI) CO., LTD., priority 2020, dated 2026).

How the values were obtained:
[1] = tested on: HT29 cells; assay: Antiproliferative activity against HT29 cells (Cell Titer-Lumi, ATP content); assay type: cell-based; settings: Homo sapiens, HT-29, 72 after compound addition, read-out: HT-29 cells Anti-proliferative activity (IC50 for the inhibition against HT-29 cell growth)
Method: Example 343. Assay for Antiproliferative Activity Against HT29 Cells
3000 HT29 cells were seed in a 384-well plate (Fisher 142762). After the cells adhered to the wall overnight, the compounds diluted in a gradient were added. 72 later, Cell Titer-Lumi (Beyotime C0068XL) was added to determine the content of ATP in the cells. The growth of the cells was evaluated, and the IC50 for the inhibition of the compounds against cell growth was calculated.

[2] = biological target: T1, Wee-1 kinase (Homo sapiens, UniProt P30291); assay: Inhibitory activity against Wee-1 kinase (Lanthra Screen Wee-1 kinase kit, Tracer 178); assay type: binding; settings: Wee-1 kinase 5 nM, Tracer 178 50 nM, 1 h room temperature
T1 construct: purchased Invitrogen
Method: Example 342. Assay for Inhibitory Activity of Compounds Against Wee-1 Kinase
The inhibitory activity of compounds against Wee-1 kinase was determined by using the Lanthra Screen Wee-1 kinase kit (Invitrogen). 5 μL of the compound diluted in a gradient with DMSO, 5 μL. of Wee-1 kinase (at a final concentration of 5 nM), 5 μL of an Eu-Anti-GST antibody (at a final concentration of 2 nM) mixture and 5 μL of kinase Tracer 178 (at a final concentration of 50 nM) were mixed well. The plate was read after incubation at room temperature for one hour. For comparison with the DMSO solvent control group, IC50 for the inhibition activity of the compounds against Wee-1 kinase was calculated.

T1 sequence (P30291 whole entry): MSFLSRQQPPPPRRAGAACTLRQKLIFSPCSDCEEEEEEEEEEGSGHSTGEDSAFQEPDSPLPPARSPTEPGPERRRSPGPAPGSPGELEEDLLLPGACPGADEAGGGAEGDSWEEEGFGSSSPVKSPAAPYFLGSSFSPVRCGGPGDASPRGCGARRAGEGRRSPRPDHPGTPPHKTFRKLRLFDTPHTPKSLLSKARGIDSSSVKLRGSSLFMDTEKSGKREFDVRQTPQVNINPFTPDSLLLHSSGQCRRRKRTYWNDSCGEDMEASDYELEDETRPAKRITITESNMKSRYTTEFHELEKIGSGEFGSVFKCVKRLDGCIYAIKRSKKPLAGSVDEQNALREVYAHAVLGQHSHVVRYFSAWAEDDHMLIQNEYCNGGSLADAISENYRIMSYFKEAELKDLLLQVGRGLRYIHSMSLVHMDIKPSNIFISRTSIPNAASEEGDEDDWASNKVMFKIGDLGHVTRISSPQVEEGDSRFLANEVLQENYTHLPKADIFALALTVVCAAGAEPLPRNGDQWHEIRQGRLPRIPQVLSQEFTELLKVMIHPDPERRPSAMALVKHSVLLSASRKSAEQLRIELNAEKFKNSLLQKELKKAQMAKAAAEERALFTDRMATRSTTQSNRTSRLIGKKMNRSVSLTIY

Row | SMILES | IC50 [1] [nM] | IC50 [2] [nM]
1 | C=CCn1c(=O)c2cnc(Nc3ccc(N4CCN(C)CC4)cc3)nc2n1-c1ccc(=O)n(C)n1 [Compound 1, 2-allyl-1-(1-methyl-6-oxo-1,6-dihydropyridazin-3-yl)-6-((4-(4-methylpiperazin-1-yl)phenyl)amino)-1,2-dihydro-3H-pyrazolo[3,4-d]pyrimidin-3-one] | > 3000 | > 100
2 | C=CCn1c(=O)c2cnc(Nc3ccc(N4CCN(C)CC4)cc3)nc2n1-c1ccc(=O)n(CC)n1 [Compound 2] | > 3000 | > 100
3 | C=CCn1c(=O)c2cnc(Nc3ccc(N4CCN(C)CC4)cc3)nc2n1-c1ccc(=O)n(CC(C)C)n1 [Compound 4] | 1000 to 3000 | 30 to 100
4 | C=CCn1c(=O)c2cnc(Nc3ccc(N4CCN(C)CC4)cc3)nc2n1-c1ccc(=O)n(C(C)CC)n1 (centres unmarked) [Compound 5] | ≤ 1000 | ≤ 30
5 | C=CCn1c(=O)c2cnc(Nc3ccc(N4CCN(C)CC4)cc3)nc2n1-c1ccc(=O)n(CC(C)(C)C)n1 [Compound 6] | 1000 to 3000 | 30 to 100
6 | C=CCn1c(=O)c2cnc(Nc3ccc(N4CCN(C)CC4)cc3)nc2n1-c1ccc(=O)n(CC(F)F)n1 [Compound 7] | 1000 to 3000 | 30 to 100
7 | C=CCn1c(=O)c2cnc(Nc3ccc(N4CCN(C)CC4)cc3)nc2n1-c1ccc(=O)n(CC(F)(F)F)n1 [Compound 8] | 1000 to 3000 | 30 to 100
8 | C=CCn1c(=O)c2cnc(Nc3ccc(N4CCN(C)CC4)cc3)nc2n1-c1ccc(=O)n(C(C)(C)C)n1 [Compound 9] | ≤ 1000 | ≤ 30
9 | C=CCn1c(=O)c2cnc(Nc3ccc(N4CCN(C)CC4)cc3)nc2n1-c1ccc(=O)n(C(C)(C)C(F)(F)F)n1 [Compound 10] | ≤ 1000 | ≤ 30
10 | C=CCn1c(=O)c2cnc(Nc3ccc(N4CCN(C)CC4)cc3)nc2n1-c1ccc(=O)n(C2CC2)n1 [Compound 11] | ≤ 1000 | ≤ 30
11 | C=CCn1c(=O)c2cnc(Nc3ccc(N4CCN(C)CC4)cc3)nc2n1-c1ccc(=O)n(C2CCC2)n1 [Compound 12] | ≤ 1000 | ≤ 30
12 | C=CCn1c(=O)c2cnc(Nc3ccc(N4CCN(C)CC4)cc3)nc2n1-c1ccc(=O)n(C2CCCC2)n1 [Compound 13] | ≤ 1000 | ≤ 30
13 | C=CCn1c(=O)c2cnc(Nc3ccc(N4CCN(C)CC4)cc3)nc2n1-c1ccc(=O)n(C2COC2)n1 [Compound 14] | > 3000 | 30 to 100
14 | C=CCn1c(=O)c2cnc(Nc3ccc(N4CCN(C)CC4)cc3)nc2n1-c1ccc(=O)n(C2CC(F)(F)C2)n1 [Compound 15] | 1000 to 3000 | 30 to 100
15 | C=CCn1c(=O)c2cnc(Nc3ccc(N4CCN(C)CC4)cc3)nc2n1-c1ccc(=O)n(CC2CC2)n1 [Compound 16] | 1000 to 3000 | 30 to 100
16 | C=CCn1c(=O)c2cnc(Nc3ccc(N4CCN(C)CC4)cc3)nc2n1-c1ccc(=O)n(CC2CCC2)n1 [Compound 17] | 1000 to 3000 | 30 to 100
17 | C=CCn1c(=O)c2cnc(Nc3ccc(N4CCN(C)CC4)cc3)nc2n1-c1ccc(=O)n(C(C)(C)CO)n1 [Compound 18] | 1000 to 3000 | ≤ 30
18 | C=CCn1c(=O)c2cnc(Nc3ccc(N4CCN(C)CC4)cc3)nc2n1-c1ccc(=O)n(C(C)(C)COC)n1 [Compound 19] | 1000 to 3000 | ≤ 30
19 | C=CCn1c(=O)c2cnc(Nc3ccc(N4CCN(C)CC4)cc3)nc2n1-c1ccc(=O)n(C(C)C)c1 [Compound 20] | ≤ 1000 | ≤ 30
20 | C=CCn1c(=O)c2cnc(Nc3ccc(N4CCN(C)CC4)cc3)nc2n1-c1ccc(=O)n(C(C)(C)C)c1 [Compound 21] | ≤ 1000 | ≤ 30
21 | C=CCn1c(=O)c2cnc(Nc3ccc(N4CCN(C)CC4)cc3)nc2n1-c1cc(C)c(=O)n(C(C)C)n1 [Compound 22] | ≤ 1000 | ≤ 30
22 | C=CCn1c(=O)c2cnc(Nc3ccc(N4CCN(C)CC4)cc3)nc2n1-c1cc(OC)c(=O)n(C(C)C)n1 [Compound 23] | > 3000 | ≤ 30
23 | C=CCn1c(=O)c2cnc(Nc3ccc(N4CCN(C)CC4)cc3)nc2n1-c1cc(F)c(=O)n(C(C)C)c1 [Compound 24] | ≤ 1000 | ≤ 30
24 | C=CCn1c(=O)c2cnc(Nc3ccc(N4CCN(C)CC4)cc3)nc2n1-c1cc(C(F)(F)F)c(=O)n(C(C)C)c1 [Compound 25] | ≤ 1000 | ≤ 30
25 | C=CCn1c(=O)c2cnc(Nc3ccc(N4CCN(C)CC4)cc3)nc2n1-c1cc(C(F)F)c(=O)n(C(C)C)c1 [Compound 26] | ≤ 1000 | ≤ 30
26 | C=CCn1c(=O)c2cnc(Nc3ccc(N4CCN(C)CC4)cc3)nc2n1-c1cc(OC)c(=O)n(C(C)C)c1 [Compound 27] | > 3000 | 30 to 100

Row | SMILES | IC50 [1] [nM] | IC50 [2] [nM]
27 | C=CCn1c(=O)c2cnc(Nc3ccc(N4CCN(C)CC4)cc3)nc2n1-c1cc(C#N)c(=O)n(C(C)C)c1 [Compound 28] | > 3000 | 30 to 100
28 | C=CCn1c(=O)c2cnc(Nc3ccc(N4CCN(C)CC4)cc3)nc2n1-c1cn(C(C)C)c(=O)cc1C [Compound 29] | ≤ 1000 | ≤ 30
29 | C=CCn1c(=O)c2cnc(Nc3ccc(N4CCN(C)CC4)cc3)nc2n1-c1cn(C(C)C)c(=O)cc1OC [Compound 30] | > 3000 | 30 to 100
30 | C=CCn1c(=O)c2cnc(Nc3ccc(N4CCNCC4)cc3)nc2n1-c1ccc(=O)n(C(C)C)n1 [Compound 31] | ≤ 1000 | ≤ 30
31 | C=CCn1c(=O)c2cnc(Nc3ccc(N4CCN(CC)CC4)cc3)nc2n1-c1ccc(=O)n(C(C)C)n1 [Compound 32] | ≤ 1000 | ≤ 30
32 | C=CCn1c(=O)c2cnc(Nc3ccc(N4CCN(C5CC5)CC4)cc3)nc2n1-c1ccc(=O)n(C(C)C)n1 [Compound 33] | ≤ 1000 | ≤ 30
33 | C=CCn1c(=O)c2cnc(Nc3ccc(N4CCN(C5CCC5)CC4)cc3)nc2n1-c1ccc(=O)n(C(C)C)n1 [Compound 34] | ≤ 1000 | ≤ 30
34 | C=CCn1c(=O)c2cnc(Nc3ccc(N4CCN(C5COC5)CC4)cc3)nc2n1-c1ccc(=O)n(C(C)C)n1 [Compound 35] | ≤ 1000 | ≤ 30
35 | C=CCn1c(=O)c2cnc(Nc3ccc(N4CCN(C5CCN(C)CC5)CC4)cc3)nc2n1-c1ccc(=O)n(C(C)C)n1 [Compound 36] | ≤ 1000 | ≤ 30
36 | C=CCn1c(=O)c2cnc(Nc3ccc(N4CCN(CCF)CC4)cc3)nc2n1-c1ccc(=O)n(C(C)C)n1 [Compound 37] | ≤ 1000 | ≤ 30
37 | C=CCn1c(=O)c2cnc(Nc3ccc(N4CCN(CC(F)F)CC4)cc3)nc2n1-c1ccc(=O)n(C(C)C)n1 [Compound 38] | ≤ 1000 | ≤ 30
38 | C=CCn1c(=O)c2cnc(Nc3ccc(N4CCN(CC(F)(F)F)CC4)cc3)nc2n1-c1ccc(=O)n(C(C)C)n1 [Compound 39] | ≤ 1000 | ≤ 30
39 | C=CCn1c(=O)c2cnc(Nc3ccc(N4CCN(CC#N)CC4)cc3)nc2n1-c1ccc(=O)n(C(C)C)n1 [Compound 40] | ≤ 1000 | ≤ 30
40 | C=CCn1c(=O)c2cnc(Nc3ccc(N4CCNCC4)c(C)c3)nc2n1-c1ccc(=O)n(C(C)C)n1 [Compound 41] | ≤ 1000 | ≤ 30
41 | C=CCn1c(=O)c2cnc(Nc3ccc(N4CCN(C)CC4)c(C)c3)nc2n1-c1ccc(=O)n(C(C)C)n1 [Compound 42] | ≤ 1000 | ≤ 30
42 | C=CCn1c(=O)c2cnc(Nc3ccc(N4CCN(C)CC4)c(F)c3)nc2n1-c1ccc(=O)n(C(C)C)n1 [Compound 44] | ≤ 1000 | ≤ 30
43 | C=CCn1c(=O)c2cnc(Nc3ccc(N4CCNCC4)c(Cl)c3)nc2n1-c1ccc(=O)n(C(C)C)c1 [Compound 45] | ≤ 1000 | ≤ 30
44 | C=CCn1c(=O)c2cnc(Nc3ccc(N4CCN(C)CC4)c(Cl)c3)nc2n1-c1ccc(=O)n(C(C)C)c1 [Compound 46] | ≤ 1000 | ≤ 30
45 | C=CCn1c(=O)c2cnc(Nc3ccc(N4CCNCC4)c(OC)c3)nc2n1-c1ccc(=O)n(C(C)C)c1 [Compound 47] | ≤ 1000 | ≤ 30
46 | C=CCn1c(=O)c2cnc(Nc3ccc(N4CCN(C)CC4)c(OC)c3)nc2n1-c1ccc(=O)n(C(C)C)c1 [Compound 48] | ≤ 1000 | ≤ 30
47 | C=CCn1c(=O)c2cnc(Nc3ccc(N4CCNCC4)c(C(F)(F)F)c3)nc2n1-c1ccc(=O)n(C(C)C)c1 [Compound 49] | ≤ 1000 | ≤ 30
48 | C=CCn1c(=O)c2cnc(Nc3ccc(N4CCN(C)CC4)c(C(F)(F)F)c3)nc2n1-c1ccc(=O)n(C(C)C)c1 [Compound 50] | ≤ 1000 | ≤ 30
49 | C=CCn1c(=O)c2cnc(Nc3ccc(N4CCNCC4)c(CO)c3)nc2n1-c1ccc(=O)n(C(C)C)c1 [Compound 51] | 1000 to 3000 | 30 to 100
50 | C=CCn1c(=O)c2cnc(Nc3ccc(N4CCN(C)CC4)c(CO)c3)nc2n1-c1ccc(=O)n(C(C)C)n1 [Compound 52] | 1000 to 3000 | ≤ 30
51 | C=CCn1c(=O)c2cnc(Nc3ccc(N4CCNCC4)c(CC(F)(F)F)c3)nc2n1-c1ccc(=O)n(C(C)C)n1 [Compound 53] | ≤ 1000 | ≤ 30
52 | C=CCn1c(=O)c2cnc(Nc3ccc(N4CCN(C)CC4)c(CC(F)(F)F)c3)nc2n1-c1ccc(=O)n(C(C)C)n1 [Compound 54] | ≤ 1000 | ≤ 30
